Each compound was assayed on M. bovis BCG.
Format: cell-based, Mycobacterium bovis BCG

SMILES	Frequency of spontaneously generated drug-resistant colonies
CC[C@@H](CO)NCCN[C@@H](CC)CO [EB, ethambutol]	4.5 × 10^−6
NNC(=O)c1ccncc1 [INH, isoniazid]	2.0 × 10^−6
NC[C@H]1O[C@H](O[C@H]2[C@H](O)[C@@H](O[C@H]3O[C@H](CO)[C@@H](O)[C@H](N)[C@H]3O)[C@H](N)C[C@@H]2N)[C@H](O)[C@@H](O)[C@@H]1O [KM, kanamycin]	6.3 × 10^−6
CO[C@H]1/C=C/O[C@@]2(C)Oc3c(C)c(O)c4c(O)c(c(/C=N/N5CCN(C)CC5)c(O)c4c3C2=O)NC(=O)/C(C)=C\C=C\[C@H](C)[C@H](O)[C@@H](C)[C@@H](O)[C@@H](C)[C@H](OC(C)=O)[C@@H]1C [RFP, rifampicin]	5.2 × 10^−9
[H]/N=C(/N)N[C@H]1[C@H](O)[C@@H](O)[C@H](O[C@@H]2O[C@@H](C)[C@](O)(C=O)[C@H]2O[C@@H]2O[C@@H](CO)[C@H](O)[C@@H](O)[C@@H]2NC)[C@@H](N/C(N)=N\[H])[C@@H]1O [SM, streptomycin]	3.1 × 10^−7
